According to US8754054B2, “Antibacterial compounds, methods of making them, and uses thereof” (Albany Molecular Research, Inc., priority 2010, dated 2014):
In brackets after ≈: the same amount, converted by molar mass. Read-outs that look alike come from different tables or passages of the source.

Tested on: MRSA 43300
Test: Antibacterial activity, NCCLS dilution method (Table 9)
Format: cell-based, S. aureus
Conditions: for MIC: Staphylococcus aureus, MRSA, read-out: MRSA 43300 MIC
Excerpt: NCCLS standards for antimicrobial susceptibility testing using the dilution method were followed. See: Performance Standards for Antimicrobial Susceptibility Testing; Fourteenth Informational Supplement. NCCLS Document M100-S14 (ISBN 1-56238-516-X), 2004. NCCLS, 940 West Valley Road, Suite 1400, Wayne, Pa. 19087-1898 USA, 2004; Methods for Dilution Antimicrobial Susceptibility Tests for Bacteria that Grow Aerobically; Approved Standard—Sixth Edition. NCCLS document M7-A6 (IBSBN 1-56238-486-4), NCCLS, 940 West Valley Road, Suite 1400, Wayne, Pa. 19087-1898 USA, 2003, which are hereby incorporated by reference in their entirety.

[1] = MRSA 43300, dilution method, labels marked a tested as a mixture of diastereomers

| Compound | MIC [1] [µg/mL] | further results |
| --- | --- | --- |
| COC(=O)c1c(C)cc2c(c1OCC(=O)O)[C@]1(O)C(=O)c3cc4c(c(O)c3C(=O)[C@]1(OC)[C@H](O)C2)C(=O)C=C(NC1O[C@@H](C)[C@H](OC)[C@@H](O)[C@H]1OC)C4=O (stereo partly drawn) [Example 9, 2-((6R,6aS,14aR)-6,8,14a-Trihydroxy-11-((3R,4R,5R,6S)-4-hydroxy-3,5-dimethoxy-6-methyltetrahydro-2H-pyran-2-ylamino)-6a-methoxy-2-(methoxycarbonyl)-3-methyl-7,9,12,14-tetraoxo-5,6,6a,7,9,12,14,14a-octahydrobenzo[a]tetracen-1-yloxy)acetic acid] | 32 (≈ 42.3 µM) | – |
| COC(=O)COc1c(C(=O)OC)c(C)cc2c1[C@]1(O)C(=O)c3cc4c(c(O)c3C(=O)[C@]1(OC)[C@H](O)C2)C(=O)C=C(N[C@H]1O[C@@H](C)[C@H](OC)[C@@H](O)[C@H]1OC)C4=O [Example 6, (6R,6aS,14aR)-Methyl 6,8,14a-trihydroxy-11-((2S,3R,4R,5R,6S)-4-hydroxy-3,5-dimethoxy-6-methyltetrahydro-2H-pyran-2-ylamino)-6a-methoxy-1-(2-methoxy-2-oxoethoxy)-3-methyl-7,9,12,14-tetraoxo-5,6,6a,7,9,12,14,14a-octahydrobenzo[a]tetracene-2-carboxylate] | 0.12 (≈ 0.156 µM) | – |
| COC(=O)c1c(C)cc2c(c1OCC(=O)N1CCCCC1)[C@]1(O)C(=O)c3cc4c(c(O)c3C(=O)[C@]1(OC)[C@H](O)C2)C(=O)C=C(N[C@H]1O[C@@H](C)[C@H](OC)[C@@H](O)[C@H]1OC)C4=O [Example 12, (6R,6aS,14aR)-Methyl 6,8,14a-trihydroxy-11-((2S,3R,4R,5R,6S)-4-hydroxy-3,5-dimethoxy-6-methyltetrahydro-2H-pyran-2-ylamino)-6a-methoxy-3-methyl-7,9,12,14-tetraoxo-1-(2-oxo-2-(piperidin-1-yl)ethoxy)-5,6,6a,7,9,12,14,14a-octahydrobenzo[a]tetracene-2-carboxylate] | 0.25 to 1 (≈ 0.304 to 1.22 µM) | – |
| COC(=O)c1c(C)c(Br)c2c(c1O)[C@]1(O)C(=O)c3cc4c(c(O)c3C(=O)[C@]1(OC)[C@H](O)C2)C(=O)C(Br)=C(N[C@H]1O[C@@H](C)[C@H](OC)[C@@H](O)[C@H]1OC)C4=O [Example 39, (6R,6aS,14aR)-Methyl 4,10-dibromo-1,6,8,14a-tetrahydroxy-11-((2S,3R,4R,5R,6S)-4-hydroxy-3,5-dimethoxy-6-methyltetrahydro-2H-pyran-2-ylamino)-6a-methoxy-3-methyl-7,9,12,14-tetraoxo-5,6,6a,7,9,12,14,14a-octahydrobenzo[a]tetracene-2-carboxylate] | 2 (≈ 2.34 µM) | – |
| CO[C@@H]1[C@@H](O)[C@@H](OC)C(NC2=CC(=O)c3c(cc4c(c3O)C(=O)[C@]3(OC)[C@H](O)Cc5cc(C)c(C(=O)Nc6ccc(-c7ccccc7)cc6)c(O)c5[C@]3(O)C4=O)C2=O)O[C@H]1C (mixture of isomers) [Example 23, (6R,6aS,14aR)—N-(Biphenyl-4-yl)-1,6,8,14a-tetrahydroxy-11-((3R,4R,5R,6S)-4-hydroxy-3,5-dimethoxy-6-methyltetrahydro-2H-pyran-2-ylamino)-6a-methoxy-3-methyl-7,9,12,14-tetraoxo-5,6,6a,7,9,12,14,14a-octahydrobenzo[a]tetracene-2-carboxamide] | 4 (≈ 4.79 µM) | – |
| COC(=O)c1c(C)cc2c(c1O)[C@]1(O)C(=O)c3cc4c(c(O)c3C(=O)[C@]1(OC)/C(=N/O)C2)C(=O)C=C(N[C@H]1O[C@@H](C)[C@H](OC)/C(=N/O)[C@H]1OC)C4=O [Example 53, (6aS,14aR,E)-Methyl 1,8,14a-trihydroxy-6-(hydroxyimino)-11-((2S,3R,5R,6S,Z)-4-(hydroxyimino)-3,5-dimethoxy-6-methyltetrahydro-2H-pyran-2-ylamino)-6a-methoxy-3-methyl-7,9,12,14-tetraoxo-5,6,6a,7,9,12,14,14a-octahydrobenzo[a]tetracene-2-carboxylate] | 0.12 (≈ 0.166 µM) | – |
| COC(=O)c1c(C)cc2c(c1O)[C@]1(O)C(=O)c3cc4c(c(O)c3C(=O)[C@]1(OC)[C@H](O)C2)C(=O)C=C(N[C@H]1O[C@@H](C)[C@H](OC)[C@@H](O)[C@H]1OC)C4=O [Example 2, (6R,6aS,14aR)-methyl 1,6,8,14a-tetrahydroxy-11-((2S,3R,4R,5R,6S)-4-hydroxy-3,5-dimethoxy-6-methyltetrahydro-2H-pyran-2-ylamino)-6a-methoxy-3-methyl-7,9,12,14-tetraoxo-5,6,6a,7,9,12,14,14a-octahydrobenzo[a]tetracene-2-carboxylate] | 0.008 (≈ 0.0115 µM) | – |
| COC(=O)c1c(C)cc2c(c1O)[C@]1(O)C(=O)c3cc4c(c(O)c3C(=O)[C@]1(OC)[C@H](O)C2)/C(=N/CCCO)C=C(N[C@H]1O[C@@H](C)[C@H](OC)[C@@H](O)[C@H]1OC)C4=O [Example 48, (6R,6aS,14aR,E)-Methyl 1,6,8,14a-tetrahydroxy-11-((2S,3R,4R,5R,6S)-4-hydroxy-3,5-dimethoxy-6-methyltetrahydro-2H-pyran-2-ylamino)-9-(3-hydroxypropylimino)-6a-methoxy-3-methyl-7,12,14-trioxo-5,6,6a,7,9,12,14,14a-octahydrobenzo[a]tetracene-2-carboxylate] | 1 (≈ 1.32 µM) | – |
| COC(=O)c1c(C)c(N)c2c(c1O)[C@]1(O)C(=O)c3cc4c(c(O)c3C(=O)[C@]1(OC)[C@H](O)C2)C(=O)C=C(N[C@H]1O[C@@H](C)[C@H](OC)[C@@H](O)[C@H]1OC)C4=O [Example 42, (6R,6aS,14aR)-Methyl 4-amino-1,6,8,14a-tetrahydroxy-11-((2S,3R,4R,5R,6S)-4-hydroxy-3,5-dimethoxy-6-methyltetrahydro-2H-pyran-2-ylamino)-6a-methoxy-3-methyl-7,9,12,14-tetraoxo-5,6,6a,7,9,12,14,14a-octahydrobenzo[a]tetracene-2-carboxylate 2,2,2-trifluoroacetate] | – | MIC: 2 to 4 µg/mL (≈ 2.81 to 5.61 µM) |
| COC(=O)c1c(C)cc2c(c1OCC(N)=O)[C@]1(O)C(=O)c3cc4c(c(O)c3C(=O)[C@]1(OC)[C@H](O)C2)C(=O)C=C(NC1O[C@@H](C)[C@H](OC)[C@@H](O)[C@H]1OC)C4=O (stereo partly drawn) [Example 10, (6R,6aS,14aR)-Methyl 1-(2-amino-2-oxoethoxy)-6,8,14a-trihydroxy-11-((3R,4R,5R,6S)-4-hydroxy-3,5-dimethoxy-6-methyltetrahydro-2H-pyran-2-ylamino)-6a-methoxy-3-methyl-7,9,12,14-tetraoxo-5,6,6a,7,9,12,14,14a-octahydrobenzo[a]tetracene-2-carboxylate] | 32 (≈ 42.4 µM) | – |
| COC(=O)c1c(C)cc2c(c1O)[C@]1(O)C(=O)c3cc4c(c(O)c3C(=O)[C@]1(OC)[C@H](O)C2)C(=O)C=C(N[C@H]1O[C@@H](C)[C@H](OC)/C(=N/OCCN)[C@H]1OC)C4=O [Example 52, (6R,6aS,14aR)-Methyl 11-((2S,3R,5R,6S,Z)-4-(2-aminoethoxyimino)-3,5-dimethoxy-6-methyltetrahydro-2H-pyran-2-ylamino)-1,6,8,14a-tetrahydroxy-6a-methoxy-3-methyl-7,9,12,14-tetraoxo-5,6,6a,7,9,12,14,14a-octahydrobenzo[a]tetracene-2-carboxylate] | 0.12 to 0.25 (≈ 0.159 to 0.332 µM) | – |
| (6R,6aS,14aR)-Methyl 1,6,8,12,14a-pentahydroxy-11-((2S,3R,4R,5R,6S)-4-hydroxy-3,5-dimethoxy-6-methyltetrahydro-2H-pyran-2-ylamino)-12-((5-(2-hydroxypropyl)furan-3-yl)methyl)-6a-methoxy-3-methyl-7,9,14-trioxo-5,6,6a,7,9,12,14,14a-octahydrobenzo[a]tetracene-2-carboxylate [Example 61] | – | MRSA 43300 MIC [1]: 0.06 µg/mL |
| CO[C@@H]1[C@@H](O)[C@@H](OC)[C@@H](NC2=CC(=O)c3c(cc4c(c3O)C(=O)[C@]3(OC)[C@H](O)Cc5cc(C)c(C(=O)OCCCc6ccccc6)c(O)c5[C@]3(O)C4=O)C2=O)O[C@H]1C [Example 33, (6R,6aS,14aR)-3-Phenylpropyl 1,6,8,14a-tetrahydroxy-11-((2S,3R,4R,5R,6S)-4-hydroxy-3,5-dimethoxy-6-methyltetrahydro-2H-pyran-2-ylamino)-6a-methoxy-3-methyl-7,9,12,14-tetraoxo-5,6,6a,7,9,12,14,14a-octahydrobenzo[a]tetracene-2-carboxylate] | 1 to 2 (≈ 1.25 to 2.49 µM) | – |
| CO[C@@H]1[C@@H](O)[C@@H](OC)[C@@H](NC2=CC(=O)c3c(cc4c(c3O)C(=O)[C@]3(OC)[C@H](O)Cc5cc(C)c(C(=O)OCC(C)C)c(O)c5[C@]3(O)C4=O)C2=O)O[C@H]1C [Example 36] | 0.12 (≈ 0.162 µM) | – |
| COC(=O)c1c(C)cc2c(c1O)[C@]1(O)C(=O)c3cc4c(c(O)c3C(=O)[C@]1(OC)[C@H](O)C2)C(=O)C=C(N[C@H]1O[C@@H](C)[C@H](OC)[C@@H](O)[C@H]1OC)C4(O)c1ccccc1 (single isomer, unassigned) [Example 56] | 8 (≈ 10.3 µM) | – |
| COC(=O)c1c(C)cc2c(c1O)[C@]1(O)C(=O)c3cc4c(c(O)c3C(=O)[C@]1(OC)[C@H](O)C2)C(=O)C=C(N[C@H]1O[C@@H](C)[C@H](OC)/C(=N/OCC(=O)O)[C@H]1OC)C4=O [Example 51, 2-((Z)-((2S,3R,5R,6S)-3,5-Dimethoxy-2-methyl-6-((6R,6aS,14aR)-1,6,8,14a-tetrahydroxy-6a-methoxy-2-(methoxycarbonyl)-3-methyl-7,9,12,14-tetraoxo-5,6,6a,7,9,12,14,14a-octahydrobenzo[a]tetracen-11-ylamino)-2H-pyran-4(3H,5H,6H)-ylidene)aminooxy)acetic acid] | 8 (≈ 10.4 µM) | – |
